Laboratory results taken from patent US20250197408A1, “CRYSTALLINE FORMS AND SALTS OF A PI3K INHIBITOR AND METHODS OF MAKING AND METHODS OF USE THEREOF” (Totus Medicines Inc., priority 2022, published 2025).

Tests used:
[1] = molecular target: T1, PI3K (Homo sapiens, UniProt P42336); assay: NanoBRET screening in transfected HEK293 cells (binding assay, with washout); details: compound incubated overnight then washed
T1 construct: expressed in transfected cells; host or cells: HEK293 (Gibco 293-H, #11631017), transient transfection with FuGENE HD
Description: Human embryonic kidney 293-H (HEK 293, Gibco 293-H, #11631017) cell lines were maintained in Dulbecco's Modified Eagle Medium, high glucose, pyruvate (DMEM, Gibco, #11995065) supplemented with 10% fetal bovine serum (FBS, Gibco, #10082147) and 1× penicillin-streptomycin (100× solution, Gibco, #15140148) at 37° C. and 5% CO2 in a water-saturated incubator. Cell were trypsinized using 0.05% or 0.25% Trypsin-EDTA solution (Trypsin-EDTA, phenol red, Gibco, #25200056 (0.25%) or #25300054). Opti-MEM media supplemented with 10% fetal bovine serum (Opti-MEM I reduced serum media, no phenol red, Gibco, #11058021) was used for culturing cells overnight for NanoBRET readout experiments.
HEK293 cells were cultivated appropriately prior to assay. The medium from cell flask was removed via aspiration, washed 1× with PBS followed by aspiration, trypsinized, and cells were allowed to dissociate from the flask. Trypsin was neutralized using growth medium and cells were pelleted via centrifugation at 200×g for 5 minutes. The medium was aspirated and the cells were resuspended into a single cell suspension using Opti-MEM I supplemented with 10% FBS. The cell density was adjusted to 2×10^5/mL in Opti-MEM I supplemented with 10% FBS in a sterile, conical tube. […]
A 10 μg/mL solution of DNA was prepared in Opti-MEM without serum. […] The plate on plate reader is read every hour for the next 6 hours.

[2] = system: NCI-H1373 (Lung); assay: Cell proliferation assay (CellTiter-Glo, 3 days treatment), NCI-H1373; type: cell-based; details: Homo sapiens, 72 h, read-out: Absolute IC50
Description: (§1) The cell lines tested included as follows: UM-UC-3 (bladder), KYSE-410 (HN/Esophagus), SW1463 (rectum), Calu-1 (Lung), NCI-H358 (Lung), SW837 (Rectum), SW756 (Cervix), NCI-H2122 (Lung), NCI-H1373 (Lung), NCI-H1792 (Lung), NCI-H23 (Lung), MIA PaCa-2 (Pancreas), and HC44.
(§2) Cells were recovered and maintained in appropriate culture media. The cells were harvested respectively during the logarithmic growth period. The cells were then resuspended and counted using a Vi cell counter (The cell viability be measured by trypan blue exclusion assay.). The cells were then diluted and 90 μL cell suspensions were used in 96-well plates according to plate map with final cell density. Two duplicate plates were set up. One is for day 0 reading (TO) and the other was cultured in incubator for reading at the end point. The incubated plates were incubated overnight in humidified incubator at 37° C. with 5% CO2.
(§3) At day 0, 10 μL culture medium to each well for TO reading. 10 μL of culture medium was added to each well for TO reading. Then, 50 μl CellTiter-Glo® Reagent was added to each well. […] Luminescence was then recorded using an EnVision Multi Label Reader. […]
(§4) For the endpoint CTG reading, 50 μL of CellTiter-Glo® Reagent were added to each well. […] Luminescence was then recorded using an EnVision Multi Label Reader. IC50's were determined for each cell line.

[3] = system: SW1463 (rectum); assay: Cell proliferation assay (CellTiter-Glo, 3 days treatment), SW1463; type: cell-based; details: Homo sapiens, 72 h, read-out: Absolute IC50
Description: as §1, §2, §3, §4

[4] = system: Calu-1 (Lung); assay: Cell proliferation assay (CellTiter-Glo, 3 days treatment), Calu-1; type: cell-based; details: Homo sapiens, 72 h, read-out: Absolute IC50
Description: as §1, §2, §3, §4

[5] = system: SW837 (Rectum); assay: Cell proliferation assay (CellTiter-Glo, 3 days treatment), SW837; type: cell-based; details: Homo sapiens, 72 h, read-out: Absolute IC50
Description: as §1, §2, §3, §4

[6] = system: NCI-H2122 (Lung); assay: Cell proliferation assay (CellTiter-Glo, 3 days treatment), NCI-H2122; type: cell-based; details: Homo sapiens, 72 h, read-out: Absolute IC50
Description: as §1, §2, §3, §4

[7] = system: NCI-H23 (Lung); assay: Cell proliferation assay (CellTiter-Glo, 3 days treatment), NCI-H23; type: cell-based; details: Homo sapiens, 72 h, read-out: Absolute IC50
Description: as §1, §2, §3, §4

[8] = system: HC44; assay: Cell proliferation assay (CellTiter-Glo, 3 days treatment), HC44; type: cell-based; details: Homo sapiens, 72 h, HCC44 (Lung), read-out: Absolute IC50
Description: as §1, §2, §3, §4

[9] = system: UM-UC-3 (bladder); assay: Cell proliferation assay (CellTiter-Glo, 3 days treatment), UM-UC-3; type: cell-based; details: Homo sapiens, UMUC3, 72 h, read-out: Absolute IC50
Description: as §1, §2, §3, §4

[10] = system: NCI-H1792 (Lung); assay: Cell proliferation assay (CellTiter-Glo, 3 days treatment), NCI-H1792; type: cell-based; details: Homo sapiens, 72 h, read-out: Absolute IC50
Description: as §1, §2, §3, §4

[11] = system: MIA PaCa-2 (Pancreas); assay: Cell proliferation assay (CellTiter-Glo, 3 days treatment), MIA PaCa-2; type: cell-based; details: Homo sapiens, 72 h, read-out: Absolute IC50
Description: as §1, §2, §3, §4

[12] = system: NCI-H358 (Lung); assay: Cell proliferation assay (CellTiter-Glo, 3 days treatment), NCI-H358; type: cell-based
Description: as §1, §2
At day 0, 10 μL culture medium to each well for TO reading. Then, 50 μl CellTiter-Glo® Reagent was added to each well. The contents were then mixed for 2 minutes on an orbital shaker to facilitate cell lysis. The plates were then allowed to incubate at room temperature for 10 minutes to stabilize luminescent signal. Luminescence was then recorded using an EnVision Multi Label Reader. The test compound Compound I, and a control cisplatin, where then diluted at various concentrations from a 10 mM stock solution. Compound I was diluted and 10 μL of each 10× compound I from working solutions for a concentration ranging from 10 μM to about 0.005 μM. Cisplatin was diluted to about […] to about 150 nM. The screening plates were then placed back into the incubator for the appropriate treatment time (3 days).
For the endpoint CTG reading, 50 μL of CellTiter-Glo® Reagent were added to each well. The contents were then mixed for 2 minutes on an orbital shaker to facilitate cell lysis. […] Luminescence was then recorded using an EnVision Multi Label Reader. IC50's were determined for each cell line.

[13] = system: KYSE-410 (HN/Esophagus); assay: Cell proliferation assay (CellTiter-Glo, 3 days treatment), KYSE-410; type: cell-based; details: Homo sapiens, 72 h, read-out: Absolute IC50
Description: as §1, §2, §3, §4

[14] = system: SW756 (Cervix); assay: Cell proliferation assay (CellTiter-Glo, 3 days treatment), SW756; type: cell-based; details: Homo sapiens, 72 h, read-out: Absolute IC50
Description: as §1, §2, §3, §4

T1 sequence (P42336 whole entry): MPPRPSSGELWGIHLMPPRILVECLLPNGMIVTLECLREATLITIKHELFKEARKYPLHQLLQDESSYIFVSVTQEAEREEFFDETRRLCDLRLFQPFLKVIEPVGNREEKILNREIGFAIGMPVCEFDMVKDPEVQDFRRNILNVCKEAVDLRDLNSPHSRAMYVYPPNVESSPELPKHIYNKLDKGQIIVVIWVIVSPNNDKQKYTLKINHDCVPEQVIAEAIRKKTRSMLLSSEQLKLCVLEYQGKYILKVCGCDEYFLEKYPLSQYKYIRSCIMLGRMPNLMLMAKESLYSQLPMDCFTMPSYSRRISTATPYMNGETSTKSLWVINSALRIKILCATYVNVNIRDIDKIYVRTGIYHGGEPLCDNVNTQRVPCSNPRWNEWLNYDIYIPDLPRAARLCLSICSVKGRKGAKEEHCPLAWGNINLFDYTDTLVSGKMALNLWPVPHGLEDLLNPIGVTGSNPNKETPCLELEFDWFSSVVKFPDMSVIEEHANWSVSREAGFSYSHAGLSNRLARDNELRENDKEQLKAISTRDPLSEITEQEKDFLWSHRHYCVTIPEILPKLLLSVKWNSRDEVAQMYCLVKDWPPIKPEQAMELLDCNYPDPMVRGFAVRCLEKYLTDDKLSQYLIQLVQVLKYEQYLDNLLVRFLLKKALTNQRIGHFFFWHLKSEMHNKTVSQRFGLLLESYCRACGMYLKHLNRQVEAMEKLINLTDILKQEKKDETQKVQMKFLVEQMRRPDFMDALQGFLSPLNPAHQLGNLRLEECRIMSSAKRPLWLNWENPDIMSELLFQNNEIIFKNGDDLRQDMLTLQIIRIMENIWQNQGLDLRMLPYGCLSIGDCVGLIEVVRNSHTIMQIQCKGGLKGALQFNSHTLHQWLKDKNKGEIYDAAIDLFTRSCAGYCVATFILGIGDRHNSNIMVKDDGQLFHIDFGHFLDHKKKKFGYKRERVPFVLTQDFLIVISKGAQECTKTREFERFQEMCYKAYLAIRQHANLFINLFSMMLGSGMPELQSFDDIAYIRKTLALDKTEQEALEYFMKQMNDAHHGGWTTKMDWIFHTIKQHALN
T1 sequence (P27986 whole entry partner): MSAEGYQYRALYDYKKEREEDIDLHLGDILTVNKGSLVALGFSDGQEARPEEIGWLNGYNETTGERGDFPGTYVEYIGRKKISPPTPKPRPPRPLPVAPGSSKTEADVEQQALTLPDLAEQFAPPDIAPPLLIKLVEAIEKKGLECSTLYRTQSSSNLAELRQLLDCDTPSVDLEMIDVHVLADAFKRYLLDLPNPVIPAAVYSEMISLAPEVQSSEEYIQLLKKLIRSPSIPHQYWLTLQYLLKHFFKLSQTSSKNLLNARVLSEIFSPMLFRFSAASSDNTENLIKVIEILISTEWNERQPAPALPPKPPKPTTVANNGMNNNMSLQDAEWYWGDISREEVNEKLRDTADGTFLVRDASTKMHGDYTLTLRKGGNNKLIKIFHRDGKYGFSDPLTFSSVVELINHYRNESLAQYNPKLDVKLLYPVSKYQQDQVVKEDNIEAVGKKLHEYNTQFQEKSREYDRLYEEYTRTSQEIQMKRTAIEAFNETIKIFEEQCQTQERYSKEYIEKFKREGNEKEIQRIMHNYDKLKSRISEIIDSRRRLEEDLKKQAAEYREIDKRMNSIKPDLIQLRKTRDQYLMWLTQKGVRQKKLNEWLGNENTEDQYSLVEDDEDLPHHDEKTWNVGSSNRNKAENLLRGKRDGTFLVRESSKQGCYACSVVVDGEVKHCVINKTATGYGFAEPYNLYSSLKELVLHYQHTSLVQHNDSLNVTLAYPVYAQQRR

In the case of `C=CC(=O)NCC(=O)N1CCN(Cc2cc3c(N4CCOCC4)nc(-c4cnc(NC(=O)OC)cc4C(F)(F)F)nn3c2)CC1` [Compound I, methyl (5-(6-((4-(acryloylglycyl)piperazin-1-yl)methyl)-4-morpholinopyrrolo[2,1-f][1,2,4]triazin-2-yl)-4-(trifluoromethyl)pyridin-2-yl) carbamate], the “inhibition of the PI3K target” value [1] is reported as “greater than 80%”, the IC50 [2] is reported as > 10 µM and the IC50 [3] is reported as 3.86 µM. For the same compound, the IC50 [4] was > 10 µM, the IC50 [5] was > 10 µM and the IC50 [6] was 3.77 µM. For the same compound, the IC50 [7] was > 10 µM, the IC50 [8] was 7.92 µM and the IC50 [9] was > 10 µM. For the same compound, the IC50 [10] was > 10 µM, the IC50 [11] was > 10 µM and the IC50 ([12]; Homo sapiens, 72 h, NCI-H358 (Lung), 3 days treatment, read-out: Absolute IC50) was 1.69 µM. For the same compound, the “inhibitory effect on cell proliferation” value ([12]; NCI-H358, 3 days treatment, CellTiter-Glo) was “substantial inhibitory effect”, the IC50 [13] was 2.02 µM and the IC50 [14] was 7.29 µM.
